Reference: patent publication US20240122933A1, “USE OF ISOQUINOLINE-1,5-DIAMINES FOR WOUND HEALING” (Lutris Pharma Ltd., priority 2021, published 2024)
Blank lines part the entries; values can stand above or below the molecule they belong to.

Tests used:
[1] = tested on: Mitogen-Activated Protein Kinase (MAPK or ERK); assay: MAPK (ERK phosphorylation) activity screen of BRaf inhibitors of Formula (I) vs. reference C-1; type: cell-based; conditions: MAPK activity of compound relative to reference compound C-1
Excerpt: The BRaf inhibitors of this disclosure were screened for phosphorylation of ERK (MAPK).
(§1) The chemical structures, synthetic schemes and the synthetic procedures for each of the compounds of Formula (I) of this disclosure, as well as their MAPK (ERK) and the phototoxicity studies of LUT-014 were detailed in Shelach N., U.S. Patent Application Publication No. U.S.2019389862, which is incorporated herein in its entirety.

[2] = Phototoxicity: Photo-Irritation Factor (PIF) or Mean Photo Effect (MPE); type: cell-based
Procedure: The level of phototoxicity was determined by measuring a Photo-Irritation Factor (PIF) or a Mean Photo Effect (MPE) of one of the compounds of Formula (I), namely LUT-014 (R=3-(trifluoromethoxy)phenyl).
as §1

[3] = tested on: wound; conditions: given alone; cited from earlier work

Molecule: C#Cc1cccc(Nc2nccc3c(Nc4ncccc4-c4ncnc5nc[nH]c45)c(C)ccc23)c1 [LUT-012]
LUT/C1 MAPK Ratios [1]: 0.7

Molecule: Cc1ccc2c(Nc3cc(C(C)(C)C)nn3C)nccc2c1Nc1ncccc1-c1ncnc2nc[nH]c12 [LUT-013]
LUT/C1 MAPK Ratios [1]: 3.4

Molecule: Cc1ccc2c(Nc3cccc(OC(F)(F)F)c3)nccc2c1Nc1ncccc1-c1ncnc2[nH]cnc12 [LUT-014]
Photo-Irritation Factor (PIF) [2]: less than 2
phototoxicity [2]: low phototoxicity
LUT/C1 MAPK Ratios [1]: 2.9

B1: Becaplermin (protein, UniProt P01127 82-190, looked up)
Platelet-derived growth …: SLGSLTIAEPAMIAECKTRTEVFEISRRLIDRTNANFLVWPPCVEVQRCSGCCNNRNVQCRPTQVQLRPVQVRKIEIVRKKPIFKKATVTLEDHLACKCETVAAARPVT
notes: recombinant human platelet-derived growth factor, FDA-approved for promoting healing of diabetic foot ulcers
effect in promoting wound healing [3]: only a modest beneficial effect

More lines, now with the values ahead:

LUT/C1 MAPK Ratios [1]: 2.1
Molecule: Cc1ccc2c(Nc3ccc(F)c(Cl)c3)nccc2c1Nc1ncccc1-c1ncnc2[nH]cnc12 [LUT-015]

LUT/C1 MAPK Ratios [1]: 2.0
Molecule: Cc1ccc2c(Nc3ccc(I)cc3F)nccc2c1Nc1ncccc1-c1ncnc2nc[nH]c12 [LUT-016]

LUT/C1 MAPK Ratios [1]: 3.5
Molecule: Cc1ccc2c(Nc3ccc(Cl)c(C(F)(F)F)c3)nccc2c1Nc1ncccc1-c1ncnc2nc[nH]c12 [LUT-017]

LUT/C1 MAPK Ratios [1]: 1.0
Molecule: Cc1ccc2c(Nc3cccc(S(N)(=O)=O)c3)nccc2c1Nc1ncccc1-c1ncnc2[nH]cnc12 [LUT-020]
